Assay results reported in US5608047A, “Cyclic ADP-ribose and analogs” (Wisconsin Alumni Research Foundation, priority 1995, dated 1997).

System: rat brain microsomes
Assay: Ca2+ release measurement with fluo-3 in rat brain microsomes
Format: biochemical
Settings: for EC50: extramicrosomal Ca2+ by fluo-3, read-out: ED50 of Ca^2+ release
Method: Ca^2+ release measurements as follows: Rat brain microsomes were prepared on the day of the experiment. Loading of the microsomes with Ca^2+ took approximately 30 minutes at 24° C. and was used at a protein concentration of 0.5 mg/ml. The free Ca^2+ used for Ca^2+ loading was 0.5 to 2 uM and was present in the loading solution as a contaminant. Ca^2+ uptake and release was followed by measuring extramicrosomal Ca^2+ using fluo-3 (Cal-Biochem) (1 uM). Fluorescence intensity of fluo-3 was measured at excitation and emission wavelength of 490 and 535 nm respectively. Fluorimetry was performed on 500 ul aliquots of microsomes using a Perkin Elmer MF-3. Additions were made in volumes of 1-5 ul and all chemicals were added in incubation medium containing 10 uM EGTA. Ca^2+ traces were calibrated by adding Ca^2+ standard solution.
Ca^2+ release measurements were done as outlined in Example 1.

Row | Molecule | Ca^2+ release caused by the substance | EC50 [nM] | other results
1 | Nc1ncnc2c1ncn2[C@@H]1O[C@H](COP(=O)(O)OP(=O)(O)OC[C@H]2OC(O)[C@H](O)[C@@H]2O)[C@@H](O)[C@H]1O (stereo partly shown) [ADPR, ADP-ribose] | caused no Ca^2+ release | – | –
2 | N=c1c2ncn3c2ncn1[C@@H]1O[C@H](COP(=O)(O)OP(=O)(O)OC[C@H]2O[C@@H]3[C@H](O)[C@@H]2O)[C@@H](O)[C@H]1O [cADPR, cyclic ADP-ribose] | – | 100 | –
3 | N=c1c2ncn3c2ncn1[C@@H]1O[C@H](COP(=O)(O)OP(=O)(O)OP(=O)(O)OC[C@H]2O[C@@H]3[C@H](O)[C@@H]2O)[C@@H](O)[C@H]1O [cATPR, cycle ATP-ribose] | – | 5 | potency relative to cADPR (times more potent) (ratio of ED50 values): approximately 20 times
4 | NC(=O)c1ccc[n+]([C@@H]2O[C@H](COP(=O)([O-])OP(=O)(O)OC[C@H]3O[C@@H](n4cnc5c(N)ncnc54)[C@H](O)[C@@H]3O)[C@@H](O)[C@H]2O)c1 [β-NAD] | caused no Ca^2+ release | – | –
5 | heparin | – | – | effect on Ca^2+ release induced by IP3 (release induced by IP3): blocked Ca^2+ release induced by IP3
6 | ryanodine | – | – | effect on Ca^2+ release induced by cADPR (release induced by cADPR): inhibited release of Ca^2+ by cADPR
